The results in this text go back to the NIST ThermoML archive (doi:10.1016/j.jct.2013.10.007).

For data set [1] the following is noted: Crystal; DTA.
The nature of data set [2]: Molar enthalpy of transition or fusion. The following applies: Crystal; DSC.

± gives the expanded uncertainty stated by the source.

Regarding `CCCCCCCCCCCCCCCCCC(=O)OCC(COC(=O)CCCCCCCCCCCCCCCCC)OC(=O)CCCCCCCCCCCCCCCCC` [glycerol trioctadecanoate], in data set [1], the Normal melting temperature turned out to be 72.89 ± 0.53 °C. The “Molar enthalpy of transition or fusion” value in data set [2] came to 27.7 ± 8.6 kcal/mol.
